# What was measured:
# [1] = system: MX-1 human triple-negative breast carcinoma cell line; experiment: Efficacy of PEG-talazoparib conjugates in murine MX-1 xenografts (Example 9); type: in vivo, mice; conditions: MX-1 tumors
# Method: The MX-1 human triple-negative breast carcinoma cell line was obtained from Charles River Labs (Frederick, Md).
# Tumor xenografts were established by subcutaneous injection with MX-1 tumor cells (2×10^6 cells in 100 μl of serum free medium mixed 1:1 with Matrigel) into the right flank of female NCr nude mice. When tumor xenografts reached 1000-1500 mm^3 in donor mice, they were resected, divided into even-size fragments (approximately 2.5×2.5 mm), embedded in Matrigel and re-implanted via subcutaneous trocar implantation in receiver mice.
# Solutions of talazoparib (50 μM) were prepared as by adding a solution of talazoparib in DMSO (55 mM, 454 μL) to the oral dosing buffer consisting of 10% dimethylacetamide, 6% solutol, and 84% PBS. Talazaparib content was determined by ε310nm=9872 M^−1cm^−1 in 10% dimethylacetamide, 6% solutol, and 84% PBS Solutions were delivered p.o. at 8.5-19 mL/kg to deliver 0.4 to 0.9 μmol/kg talazoparib. Solutions of PEG-talazoparib (Example 1, R^1=MeSO2, R^7=MeO(CH2)2) containing up to 8 mM talazoparib (2 mM PEG˜[talazoparib]4) were prepared in isotonic acetate (pH 5), sterile filtered through a 0.2 μM syringe filter, and TLZ content was determined by ε310nm=9872 M^−1cm^−1 in 10% dimethylacetamide, 6% solutol, and 84% PBS. Doses were delivered IP at ˜15 mL/kg mL/kg to deliver 15-120 μmol drug/kg.
# Mice bearing MX-1 tumors were dosed when tumors reached ˜100-300 mm^3 in size. Dosing solutions were administered as indicated above. Tumor volumes (caliper measurement: 0.5×(length×width)) and body weights were measured twice weekly. […] Mice bearing large tumors were dosed when tumors reached 1000-3000 mm^3.
# Progressive disease (PD) was classified as PD1 or PD2 based on the tumor growth delay (TGD) values calculated as the number of days to event. For each mouse, TGD was calculated by dividing the time to event by the median time to event in the control group. […] Median times to event were estimated based on the Kaplan-Meier event-free survival distribution.
# [2] = system: BRCA1-deficient MX-1 tumors; type: in vivo
# [3] = system: DLD-1 BRCA2^−/−; conditions: daily TLZ×21 days
# [4] = system: KT-10 tumors; conditions: KT-10, 0.1 mg/kg TLZ daily dosing; reference (26); cited from earlier work
# [5] = system: DLD-1 BRCA2^wt/wt; experiment: Efficacy in murine DLD-1 BRCA2^wt/wt xenografts (Example 10); conditions: QD oral
smiles,measurement,setting,value
"Cn1ncnc1[C@H]1c2n[nH]c(=O)c3cc(F)cc(c23)N[C@@H]1c1ccc(F)cc1 [TLZ, talazoparib]","MCR (number of mice, Houghton analysis)",[1]; dose 0.4 μmol/kg,1
same,"PD2 (number of mice, Houghton analysis)",[1]; dose 0.4 μmol/kg,4
same,"CR (number of mice, Houghton analysis)",[1]; dose 0.7 μmol/kg,2
same,"MCR (number of mice, Houghton analysis)",[1]; dose 0.7 μmol/kg,1
same,"PR (number of mice, Houghton analysis)",[1]; dose 0.7 μmol/kg,2
same,duration of growth suppression,"[2]; MX-1, daily oral 0.4 μmol/kg (0.15 mg/kg)",~3 wks
same,median EFS,"[2]; MX-1, daily oral 0.4 μmol/kg, event = doubling of initial tumor volume",35 days
same,increase in median event free survival,[3],11 fold
same,response of KT-10 to daily TLZ,[4],maintained CRs over 12 wks
same,median EFS of treated animals vs controls,[5],no increase
same,tumor response,[5],resistant

# Source: patent US12472261B2, “Conjugated inhibitors of DNA damage response” (ProLynx LLC, priority 2019, dated 2025)
